Like-named read-outs stand apart in the source and are kept apart here.
Biological target: T1, full-length human Mineralocorticoid Receptor (MR) (Homo sapiens, UniProt P08235)
T1 construct: full-length human Mineralocorticoid Receptor (MR); host or cells: PathHunter CHO-K1 cells
T1 sequence (P08235 1-984): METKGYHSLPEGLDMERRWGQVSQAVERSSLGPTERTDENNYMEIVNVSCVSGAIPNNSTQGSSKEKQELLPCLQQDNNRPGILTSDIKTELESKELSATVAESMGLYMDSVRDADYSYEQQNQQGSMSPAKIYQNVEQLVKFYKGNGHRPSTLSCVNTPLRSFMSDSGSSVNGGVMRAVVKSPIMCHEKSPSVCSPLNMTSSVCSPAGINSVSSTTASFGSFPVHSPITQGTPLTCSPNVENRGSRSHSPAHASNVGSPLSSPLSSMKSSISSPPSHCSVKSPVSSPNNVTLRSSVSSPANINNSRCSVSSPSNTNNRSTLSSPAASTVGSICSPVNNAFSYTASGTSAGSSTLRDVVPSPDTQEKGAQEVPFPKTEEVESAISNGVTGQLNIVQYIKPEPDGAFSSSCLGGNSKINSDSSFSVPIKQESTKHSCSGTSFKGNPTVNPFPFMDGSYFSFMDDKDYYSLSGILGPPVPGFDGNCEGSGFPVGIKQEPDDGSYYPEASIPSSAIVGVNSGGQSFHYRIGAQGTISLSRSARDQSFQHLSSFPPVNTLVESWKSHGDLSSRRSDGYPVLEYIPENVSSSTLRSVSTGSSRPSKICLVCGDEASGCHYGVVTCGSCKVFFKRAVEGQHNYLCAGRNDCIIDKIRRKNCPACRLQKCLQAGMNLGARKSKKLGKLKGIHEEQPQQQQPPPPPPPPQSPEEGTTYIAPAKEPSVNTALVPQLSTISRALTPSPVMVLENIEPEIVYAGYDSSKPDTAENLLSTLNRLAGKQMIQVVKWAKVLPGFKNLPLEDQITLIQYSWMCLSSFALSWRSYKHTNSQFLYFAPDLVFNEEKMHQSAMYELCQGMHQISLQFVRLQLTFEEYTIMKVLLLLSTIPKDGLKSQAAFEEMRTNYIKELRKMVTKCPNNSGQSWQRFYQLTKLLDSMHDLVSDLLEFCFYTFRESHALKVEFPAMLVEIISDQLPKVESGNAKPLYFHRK
Assay: human MR NH Pro assay (PathHunter Protein:Protein interaction assay, MR antagonism)
Assay type: cell-based
Settings: PathHunter CHO-K1 cells that overexpress human MR, aldosterone (0.3 nM), 6 hours at 37° C., antagonist mode
Protocol: The activity of the compounds of the present invention regarding mineralocorticoid receptor antagonism was evaluated using the following assay.
Assessment of Mr Potency in HMR NH Pro Assay
The human MR NH Pro assay is a commercially available PathHunter™ Protein:Protein interaction assay (DiscoveRx; http://www.discoverx.com/nhrs/prod-nhrs.php) that measures the ability of compounds to antagonize full-length human Mineralocorticoid Receptor (MR) binding to a coactivator peptide. PathHunter™ CHO—K1 cells that overexpress human MR (Cat #93-0456C2, Lot No: 09B0913) were cultured in growth media (F12K w/Glutamine and phenol red (Gibco 11765-047) supplemented with 10% HI FBS (Gibco 16000); 0.25 mg/ml Hygromycin in PBS (Invitrogen 10687-010, 50 mg/ml); 100 I.U./mL and 100 μg/mL Pen/Strep (Gibco 15140-122); 0.6 mg/mL Geneticin).
Compounds were assessed for MR antagonist activity by incubating the cells with a titrating dose of compound in F12K w/Glutamine and phenol red culture media (Invitrogen 11765-047) supplemented with 1% Charcoal/Dextran Treated FBS (Hyclone #SH30068.01) and aldosterone (0.3 nM) for 6 hours at 37° C. […] Growth Media: • F12K w/Glutamine and phenol red (Gibco 11765-047) • 10% HI FBS (Gibco 16000) • 0.25 mg/ml Hygromycin in PBS (Invitrogen 10687-010, 50 mg/ml) • 100 I.U./mL and 100 μg/mL Pen/Strep (Gibco 15140-122) • 0.6 mg/mL Geneticin (Gibco 10131, 50 mg/ml) • 2. Assay Media: • F12K w/Glutamine and phenol red (Invitrogen 11765-047) • 1% Charcoal/Dextran Treated FBS (Hyclone #SH30068.01) • 3. 3× PathHunter Detection Reagents (Cat#93-0001) (need ˜6 ml/plate). […] Control Agonist:Aldosterone:Sigma cat# A9477 • Prepare stock solution-10 μM in DMSO kept at −20° C. • for assay, dilute in assay media to 1.8 or 6 nM (6× of final concentration=about 0.3 nM to about 1.0 nM) • 5. Cell line: PathHunter CHO—K1 MR cells Cat #93-0456C2, Lot No: 09B0913, from operation liquid nitrogen stock. • 6. Control Antagonist:Spironolactone:Sigma #S-3378 and Eplerenone Sigma #107724-20-9 (10 mM stock concentration also prepared in DMSO and stored at −20° C.). • Methods: • Assay Set up and Calculations: • 1. Cells were grown in F12+FBS+Hygromycin+pen/strep+Genetin • 2. Cells were collected with 0.05% trypsin and the cell suspension was spun and resuspended in a volume of F12+1.5% CD-FBS and counted. • 3. The cells were resuspended to 4×10^5 cells/mL. • 4. Cells were (25 μL/well) added to the wells of a 384 well plate. • 5. The plate was then incubated at 37° C. over night in a humidified incubator with 5% CO2. • 6. Test compounds were titrated starting at 4.4 mM, 10-point titration in 1:3 dilution. • 7. Aldosterone was diluted in assay media to 1.8 nM or 6 nM from 10 μM stock (final concentration to be about 0.3 nM to about 1.0 nM). • Protocol for 384 Well Plate Format: 6 Hr Treatment: • 1. Plated 10K exponentially growing cells/well (25 μL) resuspended in assay media to each well using the Multidrop (Thermo Electron) (use white wall, clear bottom assay plates (Costar #3570) and incubate overnight at 37° C., 5% CO2. • 2. 0.25 μL 120× test compound (final DMSO concentration should be <1%) was added to each well n=2, 10 point titrations starting at 36.7 μM final concentration. • 3. 5 μL 6× agonist (final aldosterone concentration should be about 0.3 nM to about 1.0 nM) was added to all wells using the PlateMate Plus.
(ThermoFisher) (except those wells in columns 23 and 24) • 4. 5 μL of assay media was added to all wells in column 23 and 24. • 5. Plates were incubated 6 hrs at 37° C., 5% CO2. • 6. 15 μL 3× DiscoveRx detection reagent was added to each well. • 7. Plates were incubated for 1 hour at room temperature (plates stored in the dark). • 8. Plates were read on Envision (PerkinElmer) luminesence plate reader and analyzed using ADA.

Structure (SMILES) | IC50 (read-out: IC50 rating) | IC50 (Table 3, read-out: IC50)
C[C@H](c1ccc(F)cc1)N1C(=O)O[C@](Cc2ccccc2)(c2nc3cc(F)c(F)cc3n2C)C1=O [Compound 37, (5R)-5-Benzyl-5-(5,6-difluoro-1-methyl-1H-benzimidazol-2-yl)-3-[(1R)-1-(4-fluorophenyl)ethyl]-1,3-oxazolidine-2,4-dione] | 0.1 to 0.5 µM | –
CCCCC[C@@H](C)N1C(=O)O[C@](Cc2ccccc2)(c2nc3cc(NS(C)(=O)=O)ccc3[nH]2)C1=O [Example 40, N-(2-((R)-5-benzyl-3-((R)-heptan-2-yl)-2,4-dioxooxazolidin-5-yl)-1H-benzo[d]imidazol-5-yl)methanesulfonamide] | – | 0.5 to 2 µM
CCCCCC[C@@H](C)N1C(=O)O[C@](Cc2ccc(F)cc2)(c2nc3cc(NS(C)(=O)=O)ccc3[nH]2)C1=O [Example 41, N-(2-((R)-5-(4-fluorobenzyl)-3-((R)-octan-2-yl)-2,4-dioxooxazolidin-5-yl)-1H-benzo[d]imidazol-5-yl)methanesulfonamide] | – | 0.5 to 2 µM
CCCCCC[C@@H](C)N1C(=O)O[C@](Cc2ccccc2)(c2nc3cc(NS(C)(=O)=O)ccc3[nH]2)C1=O [Example 42, N-(2-((R)-5-benzyl-3-((R)-octan-2-yl)-2,4-dioxooxazolidin-5-yl)-1H-benzo[d]imidazol-5-yl)methanesulfonamide] | – | 0.5 to 2 µM
